17 compounds from patent US7659271B2, “Pyrimidine compound having dibenzylamine structure and medicament comprising the same” (Kowa Company, Ltd., priority 2007, dated 2010) can be followed below.

This test addresses T1, CETP (Homo sapiens, UniProt P11597).
T1 construct: The CETP activity in this plasma was measured with Cholesteryl Ester Transfer Protein Activity kit; from tissue; host or cells: human plasma
T1 sequence (P11597 18-493): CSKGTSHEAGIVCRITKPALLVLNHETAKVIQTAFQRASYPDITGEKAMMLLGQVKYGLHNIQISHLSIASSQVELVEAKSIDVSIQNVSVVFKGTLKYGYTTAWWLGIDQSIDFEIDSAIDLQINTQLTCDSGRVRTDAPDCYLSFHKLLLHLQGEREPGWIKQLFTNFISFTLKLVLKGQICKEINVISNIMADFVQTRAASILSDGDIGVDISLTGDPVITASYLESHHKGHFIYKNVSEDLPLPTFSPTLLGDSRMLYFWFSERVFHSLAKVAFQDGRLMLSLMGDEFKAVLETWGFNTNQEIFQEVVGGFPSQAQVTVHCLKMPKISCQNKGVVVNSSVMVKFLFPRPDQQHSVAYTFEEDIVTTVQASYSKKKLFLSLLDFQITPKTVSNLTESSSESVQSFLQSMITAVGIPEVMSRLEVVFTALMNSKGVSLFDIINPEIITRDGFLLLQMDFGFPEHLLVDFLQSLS
Kind of test: Measurement of CETP inhibitory action in human plasma. It counts as biochemical. Conditions: incubated with compound 37° C. 4 hours, Roar Biomedical CETP Activity kit, read-out: IC50 (concentration inhibiting the CETP activity by 50%). The protocol:
A solution obtained by dissolving an exemplary compound in polyethylene glycol/N-methyl-2-pyrrolidone (vol/vol=1/1) was added to human plasma, and the mixture was incubated in an incubator at 37° C. for 4 hours. The CETP activity in this plasma was measured with Cholesteryl Ester Transfer Protein Activity kit (Roar Biomedical, catalog No.: RB-CETP). Specifically, to each well of a 96-well plate, 95 μL of a buffer (10 mM Tris, 150 mM NaCl, 2 mM EDTA, pH 7.4), 2 μL of Donor particle and 2 μL of Acceptor particle were added, 1 μL of the human plasma after the incubation was added to the mixture, and the mixture was incubated in an incubator at 37° C. for 2 hours. After completion of the incubation, fluorescence intensity (FLU) was measured with a fluorescence plate reader (excitation wavelength: 465 nm, emission wavelength: 535 nm). In accordance with the following equation 1, the CETP activity (% of control) was obtained for the compounds of the examples for two or more concentrations. CETP activity (% of control)=(Sample FLU−Blank FLU)×100/(Control FLU−Blank FLU) (Equation 1)
In the equation, the terms have the following meanings: […]
Blank FLU: Fluorescence intensity of sample not added with plasma
Control FLU: Fluorescence intensity of plasma not added with solution of compound
Sample FLU: Fluorescence intensity of plasma added with solution of compound
A value obtained by subtracting the value of the CETP activity from 100 was defined as the CETP inhibitory rate of each exemplary compound, and a concentration inhibiting the CETP activity by 50% (IC50) was calculated for each exemplary compound from the values of the CETP inhibitory rate at two or more concentrations.

With `CCN(CC1CCCC1)c1ccc(C(F)(F)F)cc1CN(c1ncc(OCC[S+](C)[O-])cn1)C(C)c1cc(C(F)(F)F)cc(C(F)(F)F)c1` (centres unmarked) [Example 2, N-{1-[3,5-bis(trifluoromethyl)phenyl]ethyl}-N-({2-[(cyclopentylmethyl)(ethyl)amino]-5-(trifluoromethyl)phenyl}methyl)-5-[2-(methylsulfinyl)ethoxy]pyrimidin-2-amine], the IC50 is 40 nM. Regarding `CCN(CC1CCCC1)c1ccc(OC)cc1CN(c1ncc(OCCS(C)(=O)=O)cn1)C(C)c1cc(C(F)(F)F)cc(C(F)(F)F)c1` (centres unmarked) [Example 5, N-{1-[3,5-bis(trifluoromethyl)phenyl]ethyl}-N-({2-[(cyclopentylmethyl)(ethyl)amino]-5-methoxyphenyl}methyl)-5-[2-(methylsulfonyl)ethoxy]pyrimidin-2-amine], the IC50 was found to be 50 nM.

For the compound `CCN(CC1CCCC1)c1c(F)cc(F)cc1CN(c1ncc(OCCS(C)(=O)=O)cn1)C(C)c1cc(C(F)(F)F)cc(C(F)(F)F)c1` (centres unmarked) [Example 7, N-{1-[3,5-bis(trifluoromethyl)phenyl]ethyl}-N-({2-[(cyclopentylmethyl)(ethyl)amino]-3,5-difluorophenyl}methyl)-5-[2-(methylsulfonyl)ethoxy]pyrimidin-2-amine], the IC50 amounted to 300 nM. `CCN(CC1CCCC1)c1ccc(C)cc1CN(c1ncc(OCCS(C)(=O)=O)cn1)C(C)c1cc(C(F)(F)F)cc(C(F)(F)F)c1` (centres unmarked) [Example 9, N-{1-[3,5-bis(trifluoromethyl)phenyl]ethyl}-N-({2-[(cyclopentylmethyl)(ethyl)amino]-5-methylphenyl}methyl)-5-[2-(methylsulfonyl)ethoxy]pyrimidin-2-amine]: the IC50 was 70 nM.

Regarding `CCN(CC1CCCC1)c1cc(F)ccc1CN(c1ncc(OCCS(C)(=O)=O)cn1)C(C)c1cc(C(F)(F)F)cc(C(F)(F)F)c1` (centres unmarked) [Example 11, N-{1-[3,5-bis(trifluoromethyl)phenyl]ethyl}-N-({2-[(cyclopentylmethyl)(ethyl)amino]-4-fluorophenyl}methyl)-5-[2-(methylsulfonyl)ethoxy]pyrimidin-2-amine], the IC50 is 250 nM.

For the compound `CCN(CC1CCCC1)c1cc(OC)ccc1CN(c1ncc(OCCS(C)(=O)=O)cn1)C(C)c1cc(C(F)(F)F)cc(C(F)(F)F)c1` (centres unmarked) [Example 13, N-{1-[3,5-bis(trifluoromethyl)phenyl]ethyl}-N-({2-[(cyclopentylmethyl)(ethyl)amino]-4-methoxyphenyl}methyl)-5-[2-(methylsulfonyl)ethoxy]pyrimidin-2-amine], the IC50 worked out at 100 nM. Next, `CCN(CC1CCCC1)c1cc(C(F)(F)F)ccc1CN(c1ncc(OCC[S+](C)[O-])cn1)C(C)c1cc(C(F)(F)F)cc(C(F)(F)F)c1` (centres unmarked) [Example 15, N-{1-[3,5-bis(trifluoromethyl)phenyl]ethyl}-N-({2-[(cyclopentylmethyl)(ethyl)amino]-4-(trifluoromethyl)phenyl}methyl)-5-[2-(methylsulfinyl)ethoxy]pyrimidin-2-amine]: 300 nM. To `CCN(CC1CCCC1)c1cc(C(F)(F)F)ccc1CN(c1ncc(OCCS(C)(=O)=O)cn1)C(C)c1cc(C(F)(F)F)cc(C(F)(F)F)c1` (centres unmarked) [Example 16, N-{1-[3,5-bis(trifluoromethyl)phenyl]ethyl}-N-({2-[(cyclopentylmethyl)(ethyl)amino]-4-(trifluoromethyl)phenyl}methyl)-5-[2-(methylsulfonyl)ethoxy]pyrimidin-2-amine] belongs 150 nM. With `CCN(CC1CCCC1)c1ccccc1CN(c1ncc(OCCS(C)(=O)=O)cn1)C(C)c1cc(C(F)(F)F)cc(C(F)(F)F)c1` (centres unmarked) [Example 20, N-{1-[3,5-bis(trifluoromethyl)phenyl]ethyl}-N-({2-[(cyclopentylmethyl)(ethyl)amino]phenyl}methyl)-5-[2-(methylsulfonyl)ethoxy]pyrimidin-2-amine], the IC50 turned out to be 800 nM. Take `CCN(CC1CCCC1)c1cc(F)c(F)cc1CN(c1ncc(OCCS(C)(=O)=O)cn1)C(C)c1cc(C(F)(F)F)cc(C(F)(F)F)c1` (centres unmarked) [Example 22, N-{1-[3,5-bis(trifluoromethyl)phenyl]ethyl}-N-({2-[(cyclopentylmethyl)(ethyl)amino]-4,5-difluorophenyl}methyl)-5-[2-(methylsulfonyl)ethoxy]pyrimidin-2-amine]: the IC50 was 500 nM. Consider `CCN(CC1CCCC1)c1cc(Cl)ccc1CN(c1ncc(OCCS(C)(=O)=O)cn1)C(C)c1cc(C(F)(F)F)cc(C(F)(F)F)c1` (centres unmarked) [Example 24, N-{1-[3,5-bis(trifluoromethyl)phenyl]ethyl}-N-({4-chloro-2-[(cyclopentylmethyl)(ethyl)amino]phenyl}methyl)-5-[2-(methylsulfonyl)ethoxy]pyrimidin-2-amine], for which the IC50 worked out at 300 nM.

As to `CCN(CC1CCCC1)c1ccc(F)cc1CN(c1ncc(OCCS(C)(=O)=O)cn1)C(C)c1cc(C(F)(F)F)cc(C(F)(F)F)c1` (centres unmarked) [Example 26, N-{1-[3,5-bis(trifluoromethyl)phenyl]ethyl}-N-({2-[(cyclopentylmethyl)(ethyl)amino]-5-fluorophenyl}methyl)-5-[2-(methylsulfonyl)ethoxy]pyrimidin-2-amine], the IC50 stood at 250 nM.

`CCN(CC1CCCC1)c1cc(Br)ccc1CN(c1ncc(OCCS(C)(=O)=O)cn1)C(C)c1cc(C(F)(F)F)cc(C(F)(F)F)c1` (centres unmarked) [Example 28, N-{1-[3,5-bis(trifluoromethyl)phenyl]ethyl}-N-({4-bromo-2-[(cyclopentylmethyl)(ethyl)amino]phenyl}methyl)-5-[2-(methylsulfonyl)ethoxy]pyrimidin-2-amine]: the IC50 came out at 200 nM. For the compound `CCN(CC1CCCC1)c1ccc(Br)cc1CN(c1ncc(OCCS(C)(=O)=O)cn1)C(C)c1cc(C(F)(F)F)cc(C(F)(F)F)c1` (centres unmarked) [Example 30, N-{1-[3,5-bis(trifluoromethyl)phenyl]ethyl}-N-({5-bromo-2-[(cyclopentylmethyl)(ethyl)amino]phenyl}methyl)-5-[2-(methylsulfonyl)ethoxy]pyrimidin-2-amine], the IC50 amounted to 45 nM. Regarding `CCN(CC1CCCC1)c1ccc(C(F)(F)F)cc1CN(c1ncc(OCCS(C)(=O)=O)cn1)C(C)c1cc(C#N)cc(C(F)(F)F)c1` (centres unmarked) [Example 32, 3-{1-[({2-[(cyclopentylmethyl)(ethyl)amino]-5-trifluoromethylphenyl}methyl){5-[2-(methylsulfonyl)ethoxy]pyrimidin-2-yl}amino]ethyl}-5-(trifluoromethyl)benzonitrile], the IC50 is 30 nM. Next, `CCN(C[C@H]1CC[C@H](CC(=O)O)CC1)c1ccc(C(F)(F)F)cc1CN(c1ncc(OCCS(C)(=O)=O)cn1)C(C)c1cc(C(F)(F)F)cc(C(F)(F)F)c1` (stereo partly drawn) [Example 45, trans-{4-[({2-[({1-[3,5-bis(trifluoromethyl)phenyl]ethyl}{5-[2-(methylsulfonyl)ethoxy]pyrimidin-2-yl}amino)methyl]-4-(trifluoromethyl)phenyl}(ethyl)amino)methyl]cyclohexyl}acetic acid]: 120 nM; `CC(c1cc(C(F)(F)F)cc(C(F)(F)F)c1)N(Cc1cc(F)cc(F)c1N(CC1CC1)CC1CC1)c1ncc(OCCS(C)(=O)=O)cn1` (centres unmarked) [Example 47, N-({2-[bis(cyclopropylmethyl)amino]-3,5-difluorophenyl}methyl)-N-{1-[3,5-bis(trifluoromethyl)phenyl]ethyl}-5-[2-(methylsulfonyl)ethoxy]pyrimidin-2-amine]: 400 nM.
